# Key:
# [1] = system: in vitro potato seedlings, potato cultivar "Superior"; assay: Seedling quality (growth state) of in vitro tissue-cultured potato plantlets according to supplemented components of MS medium; format: in vivo
# Description: (§1) In order to determine conditions suitable for planting through stem cutting and acclimatizing tissue-cultured plantlets in DSCAC, the in vitro potato seedlings were evaluated for seedling quality and survival rates upon stem-cutting and acclimation according to the amount of supplemented components of MS medium.
# (§2) The culture seedlings obtained from growing points collected from a seed potato cultivar, were tested for infection with viruses (PLRV, PVY, PVX, PVM, PVS and AMV) for selection of disease-free individuals. Then, plantlets were planted in 500-ml culture bottles containing 200 ml of a solid medium, which was prepared with a basic MS medium of pH 5.8 supplemented with 9 g/L of agar, and incubated for 25 days in a culture room under 4,500 Lux lighting for 18-20 hrs, and 0 Lux for 4-6 hrs using 4D fluorescent lamps, wherein the room temperature was maintained at 21° C. using an air conditioner. The in vitro potato seedlings were examined for growth states and survival rates upon stem-cutting and acclimation according to the amount of supplemented components of the medium.
# [2] = system: in vitro potato seedlings, potato cultivar "Superior"; assay: Survival rates of stem cuttings of in vitro potato seedlings upon stem-cutting and acclimation according to supplemented components of MS medium; format: in vivo
# Description: as §1, §2
# [3] = coumarin 0.010 mg/L + sucrose 30 g/L in MS medium
# [4] = coumarin 0.010 mg/L + sucrose 80 g/L in MS medium
# [5] = coumarin 0.015 mg/L + sucrose 30 g/L in MS medium
# [6] = coumarin 0.015 mg/L + sucrose 80 g/L in MS medium
# [7] = coumarin 0.020 mg/L + sucrose 30 g/L in MS medium
# [8] = coumarin 0.020 mg/L + sucrose 80 g/L in MS medium
# [9] = coumarin 0.025 mg/L + sucrose 30 g/L in MS medium
# [10] = coumarin 0.025 mg/L + sucrose 80 g/L in MS medium
# [11] = coumarin 0.030 mg/L + sucrose 30 g/L in MS medium
# [12] = coumarin 0.030 mg/L + sucrose 80 g/L in MS medium
# [13] = coumarin 0.035 mg/L + sucrose 30 g/L in MS medium
# [14] = coumarin 0.035 mg/L + sucrose 80 g/L in MS medium
# [15] = Table 2: sucrose 30 g/L, coumarin 0 mg/L in MS medium
# [16] = Table 2: sucrose 80 g/L, coumarin 0 mg/L in MS medium
# [17] = Table 3: sucrose 30 g/L, hyponex 0 g/L in MS medium
# [18] = Table 3: sucrose 80 g/L, hyponex 0 g/L in MS medium
# [19] = sucrose 20 g/L in MS medium, 25 days
# [20] = sucrose 40 g/L in MS medium, 25 days
# [21] = sucrose 60 g/L in MS medium, 25 days
# [22] = sucrose 80 g/L in MS medium, 25 days
# [23] = sucrose 100 g/L in MS medium, 25 days
# [24] = sucrose 120 g/L in MS medium, 25 days
# [25] = sucrose 140 g/L in MS medium, 25 days
compound,measurement,setting,value
"O=c1ccc2ccccc2o1 [Coumarin, coumarin]",Seedling quality and survival rates,"[1]; MS medium with 80 g/L sucrose and 0.025 mg/L coumarin, compared with other amounts",highest seedling quality and survival rates
same,Fresh weight,[1]; [3],0.57 g/plant
same,Plant length,[1]; [3],6.1 cm/plant
same,Fresh weight,[1]; [4],1.12 g/plant
same,Plant length,[1]; [4],7.8 cm/plant
same,Fresh weight,[1]; [5],0.63 g/plant
same,Plant length,[1]; [5],6.5 cm/plant
same,Fresh weight,[1]; [6],1.13 g/plant
same,Plant length,[1]; [6],7.9 cm/plant
same,Fresh weight,[1]; [7],0.71 g/plant
same,Plant length,[1]; [7],6.7 cm/plant
same,Fresh weight,[1]; [8],1.31 g/plant
same,Plant length,[1]; [8],8.1 cm/plant
same,Fresh weight,[1]; [9],0.84 g/plant
same,Plant length,[1]; [9],6.9 cm/plant
same,Fresh weight,[1]; [10],1.65 g/plant
same,Plant length,[1]; [10],9.5 cm/plant
same,Fresh weight,[1]; [11],0.86 g/plant
same,Plant length,[1]; [11],6.7 cm/plant
same,Fresh weight,[1]; [12],1.39 g/plant
same,Plant length,[1]; [12],8.3 cm/plant
same,Fresh weight,[1]; [13],0.71 g/plant
same,Plant length,[1]; [13],6.4 cm/plant
same,Fresh weight,[1]; [14],1.36 g/plant
same,Plant length,[1]; [14],8.2 cm/plant
same,Survival rates of stem cuttings,[2]; [3],73
same,Survival rates of stem cuttings,[2]; [4],90
same,Survival rates of stem cuttings,[2]; [5],78
same,Survival rates of stem cuttings,[2]; [6],92
same,Survival rates of stem cuttings,[2]; [7],80
same,Survival rates of stem cuttings,[2]; [8],100
same,Survival rates of stem cuttings,[2]; [9],83
same,Survival rates of stem cuttings,[2]; [10],100
same,Survival rates of stem cuttings,[2]; [11],88
same,Survival rates of stem cuttings,[2]; [12],100
same,Survival rates of stem cuttings,[2]; [13],81
same,Survival rates of stem cuttings,[2]; [14],100
"OC[C@H]1O[C@@](CO)(O[C@H]2O[C@H](CO)[C@@H](O)[C@H](O)[C@H]2O)[C@@H](O)[C@@H]1O [Sucrose, sucrose]",Fresh weight,[1]; [15],0.53 g/plant
same,Plant length,[1]; [15],5.3 cm/plant
same,Fresh weight,[1]; [16],0.72 g/plant
same,Plant length,[1]; [16],8.6 cm/plant
same,Fresh weight,[1]; [17],0.53 g/plant
same,Plant length,[1]; [17],7.2 cm/plant
same,Fresh weight,[1]; [18],1.03 g/plant
same,Plant length,[1]; [18],7.59 cm/plant
same,Fresh weight,[1]; [19],0.47 g/plant
same,Plant length,[1]; [19],6.2 cm/plant
same,Fresh weight,[1]; [20],0.53 g/plant
same,Plant length,[1]; [20],7.4 cm/plant
same,Fresh weight,[1]; [21],0.58 g/plant
same,Plant length,[1]; [21],9.3 cm/plant
same,Fresh weight,[1]; [22],0.75 g/plant
same,Plant length,[1]; [22],9.5 cm/plant
same,"Benefit to in vitro plantlets (plant length, fresh weight, survival rates of stem cuttings)","[1]; sucrose 80 g/L in MS medium, compared with other amounts",most beneficial
same,Fresh weight,[1]; [23],0.69 g/plant
same,Plant length,[1]; [23],6.1 cm/plant
same,Fresh weight,[1]; [24],0.63 g/plant
same,Plant length,[1]; [24],5.2 cm/plant
same,Fresh weight,[1]; [25],0.67 g/plant
same,Plant length,[1]; [25],2.1 cm/plant
same,Survival rates of stem cuttings,[2]; [15],33
same,Survival rates of stem cuttings,[2]; [16],70
same,Survival rates of stem cuttings,[2]; [17],28
same,Survival rates of stem cuttings,[2]; [18],79
same,Survival rates of stem cuttings,[2]; sucrose 20 g/L in MS medium,27%
same,Survival rates of stem cuttings,[2]; sucrose 40 g/L in MS medium,34%
same,Survival rates of stem cuttings,[2]; sucrose 60 g/L in MS medium,59%
same,Survival rates of stem cuttings,[2]; sucrose 80 g/L in MS medium,71%
same,Survival rates of stem cuttings,[2]; sucrose 100 g/L in MS medium,68%
same,Survival rates of stem cuttings,[2]; sucrose 120 g/L in MS medium,67%
same,Survival rates of stem cuttings,[2]; sucrose 140 g/L in MS medium,72%

# From patent publication US7877928B2, “Apparatus for use with a method for mass production of seedling of seed potato” (Koesan County, priority 2005, dated 2011)
